Source: ChEMBL document CHEMBL3763063, “Novel 4-anilinoquinazoline derivatives featuring an 1-adamantyl moiety as potent EGFR inhibitors with enhanced activity against NSCLC cell lines” (Eur J Med Chem, 2016)
The source made the active and inactive calls. The calls are words filed in the database; no cut-off is given here.

How the values were obtained:
[1] = molecular target: Epidermal growth factor receptor (Homo sapiens, UniProt P00533);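 further: recombinant wild-type human EGFR cytoplasmic domain, inhibition measured as decrease in autophosphorylation via Z'-Lyte readout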
Description: Inhibition of wild type recombinant human EGFR assessed as reduction in autophosphorylation of cytoplasmic domain by Z'-Lyte assay

[2] = molecular target: Epidermal growth factor receptor (Homo sapiens, UniProt P00533, L858R/T790M); format: protein assay;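 further: recombinant enzyme, cytoplasmic domain autophosphorylation read out by Z'-Lyte assay, IC50 reflects decrease in autophosphorylation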
Description: Inhibition of recombinant human EGFR L858R/T790M double mutant assessed as reduction in autophosphorylation of cytoplasmic domain by Z'-Lyte assay

[3] = test system: A-431; assay: cells; format: functional, cell-based; details: Homo sapiens, A-431, 72 h;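 further: loss of viability in A431 cells carrying wild-type EGFR, read out by MTT, antiproliferative effect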
Description: Antiproliferative activity against human A431 cells harboring wild type EGFR assessed as reduction in cell viability after 72 hrs by MTT assay

[4] = Antiproliferative activity against human HCC827 cells harboring EGFR E746 to A750 deletion mutant assessed as reduction in cell viability after 72 hrs by MTT assay; format: functional, cell-based; details: HCC827, 72 h
[5] = test system: NCI-H1975; assay: cells; format: functional, cell-based; details: Homo sapiens, NCI-H1975, 72 h
Description: Antiproliferative activity against human NCI-H1975 cells harboring EGFR L858R/T790M double mutant assessed as reduction in cell viability after 72 hrs by MTT assay

[6] = test system: A549; assay: cells; format: functional, cell-based; details: Homo sapiens, A549, 72 h
Description: Antiproliferative activity against human A549 cells harboring K-ras mutation assessed as reduction in cell viability after 72 hrs by MTT assay

[7] = test system: MCF7; assay: cells; format: functional, cell-based; details: Homo sapiens, MCF7, 72 h;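 further: antiproliferative effect measured by MTT assay in EGFR-overexpressing MCF7 cells, with IC50 based on the drop in viable cells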
Description: Antiproliferative activity against human MCF7 cells overexpressing EGFR assessed as reduction in cell viability after 72 hrs by MTT assay

[8] = test system: Epidermal growth factor receptor (Homo sapiens), P00533 [L858R,T790M]; assay: Potency index, ratio of gefitinib IC50 to compound IC50 for inhibition of recombinant human EGFR L858R/T790M double mutant; format: protein assay
[9] = test system: Epidermal growth factor receptor (Homo sapiens), P00533 [L858R,T790M]; assay: Inhibition of EGFR L858R/T790M double mutant autophosphorylation in human NCI-H1975 cells after 12 hrs by Western blot analysis; format: cell-based
[10] = test system: NCI-H1975; assay: Effect on total EGFR L858R/T790M double mutant level in human NCI-H1975 cells at 0.1 to 10 uM after 12 hrs by Western blot analysis; format: ADME, cell-based; details: nci-h1975, 12 h
[11] = test system: NCI-H1975; assay: Effect on total AKT level in human NCI-H1975 cells at 0.1 to 10 uM after 12 hrs by Western blot analysis; format: ADME, cell-based; details: nci-h1975, 12 h
[12] = test system: NCI-H1975; assay: Effect on total beta-actin level in human NCI-H1975 cells at 0.1 to 10 uM after 12 hrs by Western blot analysis; format: ADME, cell-based; details: nci-h1975, 12 h
[13] = test system: Epidermal growth factor receptor (Homo sapiens), P00533 [L858R,T790M]; details: NCI-H1975, at 1 µM
Description: Inhibition of EGFR L858R/T790M double mutant in human NCI-H1975 cells assessed as reduction in phosphorylated AKT level at 1 uM after 12 hrs by Western blot analysis

[14] = test system: NCI-H1975; assay: Potency index, ratio of gefitinib IC50 to compound IC50 for antiproliferative activity against human NCI-H1975 cells harboring EGFR L858R/T790M double mutant; format: functional

IC50 [1] [µM] | IC50 [2] [µM] | IC50 [3] [µM] | IC50 [5] [µM] | IC50 [6] [µM] | IC50 [7] [µM] | Ratio IC50 [8] | inhibition [9] | inhibition [13] | Structure (SMILES) | IC50 [4] [µM] | Activity [10] | Activity [11] | Activity [12] | Ratio IC50 [14]
0.00163 | 0.0145 | 9.52 | 18.8 | 3.99 | 11.2 |  |  |  | COCCOc1cc2ncnc(Nc3cccc(NC(=O)C45CC6CC(CC(C6)C4)C5)c3)c2cc1OCCOC | 0.03 |  |  |  | 
0.00452 | 0.0165 | 4.73 | 16.6 | 4.58 | 5.34 |  |  |  | COCCOc1cc2ncnc(Nc3ccc(NC(=O)C45CC6CC(CC(C6)C4)C5)cc3C)c2cc1OCCOC | 0.025 |  |  |  | 
0.00594 | 0.0108 | 6.62 | 33.1 | 7.62 | 5.19 |  |  |  | COCCOc1cc2ncnc(Nc3ccc(NC(=O)C45CC6CC(CC(C6)C4)C5)c(OC)c3)c2cc1OCCOC | > 0.04 |  |  |  | 
0.00471 | 0.00571 | 3.39 | 26.2 | 5.94 | 11.6 | 160 |  |  | COc1cc2ncnc(Nc3ccc(C(=O)NC45CC6CC(CC(C6)C4)C5)c(C#N)c3)c2cc1OCCCN1CCOCC1 | 0.02 |  |  |  | 
0.00112 | 0.0115 | 10.5 | 31 | 11.6 | 23.6 |  |  |  | COc1cc2ncnc(Nc3cccc(C(=O)NC45CC6CC(CC(C6)C4)C5)c3)c2cc1OCCCN1CCOCC1 | 0.02 |  |  |  | 

The remaining lines, values behind:

Structure (SMILES) | IC50 [1] [µM] | IC50 [2] [µM] | IC50 [3] [µM] | IC50 [5] [µM] | IC50 [6] [µM] | IC50 [7] [µM] | Ratio IC50 [8] | inhibition [9] | inhibition [13] | IC50 [4] [µM] | Activity [10] | Activity [11] | Activity [12] | Ratio IC50 [14]
COc1cc2ncnc(Nc3cccc(NC(=O)C45CC6CC(CC(C6)C4)C5)c3)c2cc1OCCCN1CCOCC1 | 0.00311 | 0.159 | 15.9 | 35.9 | 8.86 | 9.94 |  |  |  | 0.035 |  |  |  | 
COCCOc1cc2ncnc(Nc3ccc(C(=O)NC45CC6CC(CC(C6)C4)C5)cc3)c2cc1OCCOC | 0.00961 | 0.00602 | 1.02 | 12.4 | 3.42 | 1.25 | 160 | Dose-dependent effect | Active | 0.038 | Non-toxic | Non-toxic | Non-toxic | 
COc1cc2ncnc(Nc3ccc(C(=O)NC45CC6CC(CC(C6)C4)C5)cc3)c2cc1OCCCN1CCOCC1 | 0.00201 | 0.0054 | 27.9 | > 40 | 6.11 | 12 | 160 |  |  | 0.009 |  |  |  | 
COCCOc1cc2ncnc(Nc3ccc(NC(=O)C45CC6CC(CC(C6)C4)C5)c(C#N)c3)c2cc1OCCOC | 0.00501 | 0.0104 | 4.51 | 38.3 | 7.74 | 5.64 |  |  |  | > 0.04 |  |  |  | 
COc1cc2ncnc(Nc3ccc(C(=O)NC45CC6CC(CC(C6)C4)C5)c(Cl)c3)c2cc1OCCCN1CCOCC1 | 0.00642 | 0.00462 | 2.06 | 5.89 | 2.65 | 5.48 | 160 | Dose-dependent effect | Active | 0.009 | Non-toxic | Non-toxic | Non-toxic | 5
COc1cc2ncnc(Nc3cc(C(=O)NC45CC6CC(CC(C6)C4)C5)ccc3C)c2cc1OCCCN1CCOCC1 | 0.0154 | 0.0327 | 5.74 | 17.1 | 6.73 | 9.04 |  |  |  | 0.014 |  |  |  | 
COCCOc1cc2ncnc(Nc3ccc(NC(=O)C45CC6CC(CC(C6)C4)C5)c(C)c3)c2cc1OCCOC | 0.00292 | 0.0663 | 5.61 | 21.6 | 8.01 | 8.35 |  |  |  | 0.023 |  |  |  | 
